Legend:
T-47D cells = experiment: Caspase cascade activation (N-(Ac-DEVD)-N'-ethoxycarbonyl-R110 fluorogenic substrate) in T-47D cells; type: cell-based, Human; conditions: 48 h incubation; for EC50: Homo sapiens, T47D, caspase activation potency, read-out: T47 EC50; for T47 Ratio 48 hr: caspase activity: ratio of net RFU of test compound to control
Method in brief: (§1)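 EC50 comes from sigmoidal fitting of the net RFU ratio over DMSO control, read at ex 485/em 530 nm 3 h after adding 14 μM Ac-DEVD-R110 in lysolecithin/DTT/PIPES pH 7.2 buffer. Compound (0.016-10 μM final) was applied to cells for 48 h at 37 °C beforehand.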

ZR-75-1 cells = experiment: Caspase cascade activation (N-(Ac-DEVD)-N'-ethoxycarbonyl-R110 fluorogenic substrate) in ZR-75-1 cells; type: cell-based, Human; conditions: ZR-75-1, 48 h incubation; for EC50: Homo sapiens, caspase activation potency; for ZR Ratio 48 hr: caspase activity: ratio of net RFU of test compound to control
Method in brief: as §1

EC50 (T-47D cells) [nM] | EC50 (ZR-75-1 cells) [nM] | SMILES | T47 Ratio 48 hr (T-47D cells) | ZR Ratio 48 hr (ZR-75-1 cells)
802 | 583 | COc1ccc(Nc2cc(C(F)(F)F)nc(-c3cccnc3)n2)c(OC)n1 [Example 206, 4-(2,6-Dimethoxypyridin-3-ylamino)-2-(3-pyridinyl)-6-trifluoromethylpyrimidine] | 6.9 | 2.9
3110 | 2780 | FC(F)(F)c1cc(Nc2cccc3[nH]ccc23)nc(-c2ccccn2)n1 [Example 212, 4-(Indol-4-ylamino)-2-(2-pyridinyl)-6-trifluoromethylpyrimidine] | 5.8 | 6.1
2680 | 1770 | Cc1cc2cc(Nc3cc(C(F)(F)F)nc(-c4cccnc4)n3)ccc2[nH]1 [Example 213, 4-(2-Methyl-indol-5-ylamino)-2-(3-pyridinyl)-6-trifluoromethylpyrimidine] | 14.1 | 9.9
